Like-named read-outs stand apart in the source and are kept apart here.
Tests used:
Format in all cases: cell-based, human
Aβ42 = Aβ42 in FAD1 iPS cell-derived nerve cells (primary/secondary screening, dose dependency); details: secondary screening, FAD1 iPS cell-derived nerve cells, numerical value (Aβ change rate)
Text: (§1) To perform induction from iPS cells to the cerebral cortex nerve early and with high reproducibility, iPS cells introduced with human Neurogenin 2 gene (NGN2) linked to doxycycline-inducible promoter by using PiggyBac were used (FIG. 1a, FIG. 1b, FIG. 4a and FIG. 4b). IPS cells prepared from 4 patients with familial Alzheimer's disease (FAD), 2 patients with sporadic Alzheimer's disease (SAD) and 4 healthy individuals (HC) were used. The iPS cells were established by the method described in Okita K et al., Nature.
(§2) Structural formulas (those in the form of salt or halide are also described as free form) and the general names of the candidate compounds are shown in Table 1.
(§3) To further study reproducibility of the candidate drugs obtained by the primary screening, secondary screening was conducted. In addition to Aβ40, Aβ42, Aβ42/40 ratio, Aβ38, Aβ43, sAPPα, sAPPβ were also studied and each numerical value was obtained.

Aβ42/40 ratio = Aβ42/40 ratio in FAD1 iPS cell-derived nerve cells (primary/secondary screening, dose dependency); details: secondary screening
Text: as §1, §2, §3

Aβ38 = Aβ38 in FAD1 iPS cell-derived nerve cells (secondary screening); design: scale not given here
Procedure: as §3

Aβ43 = Aβ43 in FAD1 iPS cell-derived nerve cells (secondary screening); design: scale not given here
Procedure: as §3

sAPPα = sAPPα in FAD1 iPS cell-derived nerve cells (secondary screening); design: scale not given here
Procedure: as §3

sAPPβ = sAPPβ in FAD1 iPS cell-derived nerve cells (secondary screening); design: sAPPβ: scale not given here
Procedure: as §3

[1] = secondary screening, FAD1 iPS cell-derived nerve cells

| SMILES | Aβ42 (Aβ42) | Ratio Aβ42/40 (Aβ42/40 ratio) | Aβ38 (Aβ38) | Aβ43 (Aβ43) | sAPPα (sAPPα; [1]) | sAPPβ (sAPPβ; [1]) | sAPPα (sAPPα) | sAPPβ (sAPPβ) |
| --- | --- | --- | --- | --- | --- | --- | --- | --- |
| CC(C)(C)NC[C@H](O)c1ccc(O)c(CO)c1 [compound 73, LEVALBUTEROL] | 0.84 | 0.92 | 0.99 | 0.91 | 0.74 | 0.66 |  |  |
| CC(N=C(NC#N)Nc1ccncc1)C(C)(C)C (stereo not drawn) [compound 74] | 0.72 | 0.84 | 0.92 | 0.79 | 0.83 | 0.96 |  |  |
| COc1ccc(CCN(C)CCCC(C#N)(c2ccc(OC)c(OC)c2)C(C)C)cc1OC (stereo not drawn) [compound 75] | 0.74 | 0.91 | 0.89 | 0.75 | 0.81 | 0.71 |  |  |
| CCCCOc1cc(C(=O)NCCN(CC)CC)c2ccccc2n1 [compound 76, DIBUCAINE] | 0.9 | 0.94 | 0.97 | 0.98 | 0.77 | 0.77 |  |  |
| COc1cc(NC(C)CCCN)c2ncccc2c1 (stereo not drawn) [compound 77, PRIMAQUINE] | 0.87 | 0.95 | 1.07 | 0.89 | 0.79 | 0.85 |  |  |
| CNC(=C[N+](=O)[O-])NCCSCc1csc(CN(C)C)n1 [compound 78, NIZATIDINE] | 1.04 | 0.98 | 1.3 | 1.15 | 0.97 | 1.29 |  |  |
| C/N=C(\NC#N)NCCSCc1nc[nH]c1C [compound 79, CIMETIDINE] | 0.98 | 1.04 | 1.03 | 0.92 | 0.87 | 0.88 |  |  |
| CN(C)CCc1c[nH]c2ccc(Cn3cncn3)cc12 [compound 80, RIZATRIPTAN] | 0.96 | 0.85 | 1.2 | 1.07 | 0.96 | 1.08 |  |  |
| COc1cc2nc(N(C)CCCNC(=O)C3CCCO3)nc(N)c2cc1OC (stereo not drawn) [compound 81, ALFLUZOSIN] | 0.96 | 0.87 | 1.22 | 1.03 | 0.9 | 0.97 |  |  |
| CC(C)(C)NCC(O)c1ccccc1Cl (stereo not drawn) [compound 82, TULOBUTEROL] | 0.83 | 0.85 | 1 | 0.84 | 0.87 | 0.74 |  |  |
| Cc1ncc(CNC(=O)N(CCCl)N=O)c(N)n1 [compound 83, NIMUSTINE] | 0.84 | 0.86 | 1.04 | 0.89 | 0.81 | 0.89 |  |  |
| COc1ccc(CN2CCNCC2)c(OC)c1OC [compound 84, TRIMETAZIDINE] | 1.01 | 0.93 | 1.04 | 1.09 | 1.15 | 1.04 |  |  |
| CC(C)(C)NCC(O)c1cc(Cl)c(N)c(Cl)c1 (stereo not drawn) [compound 85, CLENBUTEROL] | 0.88 | 0.85 | 1.17 | 0.94 | 0.86 | 0.84 |  |  |
| CCN(CC)CCNC(=O)c1cc(Br)c(N)cc1OC [compound 86, BROMOPRIDE] | 0.84 | 0.84 | 1.07 | 0.9 | 1 | 0.85 |  |  |
| CC(C)c1cccc(C(C)C)c1O [compound 87, PROPOFOL] | 0.88 | 0.91 | 0.99 | 0.88 |  |  | 0.94 | 1 |
| Oc1c(Cl)cc(Cl)cc1Sc1cc(Cl)cc(Cl)c1O [compound 88, BITHIONOL] | 0.93 | 0.97 | 1.03 | 0.85 | 0.78 | 0.92 |  |  |
| Cc1cccc(O)c1 [compound 89, CRESOL] | 0.81 | 0.91 | 0.93 | 0.89 | 0.71 | 0.58 |  |  |

| SMILES | Aβ42 (Aβ42) | Ratio Aβ42/40 (Aβ42/40 ratio) | Aβ38 (Aβ38) | Aβ43 (Aβ43) | sAPPα (sAPPα; [1]) | sAPPβ (sAPPβ; [1]) | sAPPα (sAPPα) | sAPPβ (sAPPβ) |
| --- | --- | --- | --- | --- | --- | --- | --- | --- |
| Cc1cc2cc3c(C)cc(=O)oc3c(C)c2o1 [compound 91, TRIOXSALEN] | 0.84 | 0.95 | 0.97 | 1.01 | 0.82 | 1.02 |  |  |
| O=c1oc2cc(O)ccc2s1 [compound 92, TIOXOLONE] | 0.55 | 0.83 | 0.76 | 0.67 | 0.76 | 0.63 |  |  |
| CC(=O)Nc1cccc(O)c1 [compound 93, METACETAMOL] | 0.77 | 0.86 | 0.95 | 0.74 | 0.83 | 0.89 |  |  |
| Oc1ccc(Cl)cc1Cc1cc(Cl)ccc1O [compound 94, DICHLOROPHENE] | 0.79 | 0.89 | 0.94 | 0.87 | 0.78 | 0.85 |  |  |
| Cc1c(C(N)=O)cc([N+](=O)[O-])cc1[N+](=O)[O-] [compound 95, DINITOLMIDE] | 0.9 | 0.95 | 1 | 0.98 | 0.95 | 1.02 |  |  |
| CC(C)(Sc1cc(C(C)(C)C)c(O)c(C(C)(C)C)c1)Sc1cc(C(C)(C)C)c(O)c(C(C)(C)C)c1 [compound 96, PROBUCOL] | 0.6 | 0.7 | 0.75 | 0.65 | 1 | 1.07 |  |  |
| COc1cccc([C@@]2(O)CCCC[C@@H]2CN(C)C)c1 [compound 99, TRAMADOL] | 0.98 | 0.93 | 1.17 | 1.02 | 1.04 | 1.11 |  |  |
| CC1(C)O[C@@H]2[C@@H](CO[C@@]3(COS(N)(=O)=O)OC(C)(C)O[C@@H]23)O1 [compound 100, TOPIRAMATE] | 0.79 | 0.92 | 0.9 | 1.02 | 0.81 | 0.78 |  |  |
| CC1(C)C2CC[C@@]1(C)C(=O)C2 [compound 101, CAMPHOR (1R)] | 0.95 | 1.01 | 1.08 | 0.91 | 0.92 | 0.87 |  |  |
| C#C[C@]1(O)CC[C@H]2[C@@H]3CCC4=Cc5oncc5C[C@]4(C)[C@H]3CC[C@@]21C [compound 102, DANAZOL] | 0.93 | 1.04 | 1.02 | 1.07 | 0.79 | 0.81 |  |  |
| C[C@H](CCC(=O)O)[C@H]1CC[C@H]2[C@@H]3C(=O)C[C@@H]4CC(=O)CC[C@]4(C)[C@H]3CC(=O)[C@]12C [compound 103, DEHYDROCHOLIC ACID] | 0.95 | 0.99 | 1.09 | 1.01 | 0.75 | 0.78 |  |  |
| COc1cc2c(cc1OC)[C@@]13CCN4CC5=CCO[C@H]6CC(=O)N2[C@H]1[C@H]6[C@H]5C[C@H]43 [compound 106, BRUCINE] | 0.98 | 1.04 | 1.13 | 0.87 | 0.84 | 0.85 |  |  |
| O=C1CCc2cc(OCCCCc3nnnn3C3CCCCC3)ccc2N1 [compound 107, CILOSTAZOL] | 0.85 | 0.86 | 1.01 | 0.82 | 0.78 | 0.68 |  |  |
| CC(=O)OC1CCC2(C)C(=CCC3C4CCC(=O)C4(C)CCC32)C1 (stereo not drawn) [compound 109, PRASTERONE ACETATE] | 0.68 | 0.7 | 0.9 | 0.85 | 0.69 | 0.55 |  |  |
| C[C@@H]1O[C@@H](OC[C@H]2O[C@@H](Oc3c(-c4ccc(OCCO)c(OCCO)c4)oc4cc(OCCO)cc(O)c4c3=O)[C@H](O)[C@@H](O)[C@@H]2O)[C@H](O)[C@H](O)[C@H]1O [compound 110, TROXERUTIN] | 0.88 | 0.93 | 0.97 | 0.95 | 0.74 | 0.51 |  |  |
| CCCCCCCCCCCCCCCCCCCCCCO [compound 111, DOCOSANOL] | 0.86 | 0.9 | 1.03 | 0.83 | 0.79 | 0.83 |  |  |
| CCN(CC)C(=S)SSC(=S)N(CC)CC [compound 112] | 0.91 | 0.97 | 1.1 | 0.98 | 0.78 | 0.89 |  |  |

From patent US11026942B2, “Agent for preventing and/or treating Alzheimer's disease” (KYOTO UNIVERSITY, priority 2015, dated 2021)
